Series [1] addresses T1, Peroxisome proliferator-activated receptor alpha (Homo sapiens, UniProt Q07869).
T1 sequence (Q07869 whole entry): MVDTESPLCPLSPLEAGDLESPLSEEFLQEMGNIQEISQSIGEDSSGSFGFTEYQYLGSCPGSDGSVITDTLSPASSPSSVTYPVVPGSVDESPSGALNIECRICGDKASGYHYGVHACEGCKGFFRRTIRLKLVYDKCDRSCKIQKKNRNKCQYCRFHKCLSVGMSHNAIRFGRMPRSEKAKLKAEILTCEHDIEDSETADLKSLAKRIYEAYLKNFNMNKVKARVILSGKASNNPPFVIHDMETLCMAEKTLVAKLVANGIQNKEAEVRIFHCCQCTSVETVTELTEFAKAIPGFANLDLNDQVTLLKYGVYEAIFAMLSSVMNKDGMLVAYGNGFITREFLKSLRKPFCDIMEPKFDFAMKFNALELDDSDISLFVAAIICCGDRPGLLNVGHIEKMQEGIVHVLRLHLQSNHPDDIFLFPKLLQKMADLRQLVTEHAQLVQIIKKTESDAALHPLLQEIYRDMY
The experiment in a line: Displacement of fluorescein labeled ligand from PPARalpha receptor by fluorescence polarization assay. On the technique in general: In fluorescence polarisation assays a small probe gives low polarisation when free and higher when bound to something large.

For series [2], the target named is T2, Peroxisome proliferator-activated receptor alpha (Homo sapiens) (UniProt Q07869).
T2 sequence (whole entry): T1 sequence (Q07869 whole entry)
Kind of series: Intrinsic activity at PPARalpha receptor expressed in HEK293 cells at 1 uM by GAL4 transactivation assay relative to GW-2331. Format: cell-based.

Series [3] has as its target T3, Peroxisome proliferator-activated receptor gamma (Homo sapiens, UniProt P37231).
T3 sequence (P37231 whole entry): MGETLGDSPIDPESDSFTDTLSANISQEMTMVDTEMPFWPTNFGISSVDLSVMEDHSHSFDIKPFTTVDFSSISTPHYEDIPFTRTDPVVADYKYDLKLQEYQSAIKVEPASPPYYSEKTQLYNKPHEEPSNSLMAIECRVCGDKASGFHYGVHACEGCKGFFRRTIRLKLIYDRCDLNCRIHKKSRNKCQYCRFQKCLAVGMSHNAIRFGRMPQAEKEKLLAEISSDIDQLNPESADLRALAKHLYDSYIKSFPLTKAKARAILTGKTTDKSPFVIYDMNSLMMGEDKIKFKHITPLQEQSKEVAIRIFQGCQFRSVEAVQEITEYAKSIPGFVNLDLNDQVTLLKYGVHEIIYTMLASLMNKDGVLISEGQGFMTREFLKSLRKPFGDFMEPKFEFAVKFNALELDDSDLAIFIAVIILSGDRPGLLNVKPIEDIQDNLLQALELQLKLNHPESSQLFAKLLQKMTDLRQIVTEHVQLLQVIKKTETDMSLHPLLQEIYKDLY
Description: Agonist activity at PPARgamma receptor expressed in HEK293 cells by GAL4 transactivation assay

For series [4], the target named is T1, Peroxisome proliferator-activated receptor alpha. Kind of series: Agonist activity at PPARalpha receptor expressed in HEK293 cells by GAL4 transactivation assay. The class given is functional, cell-based.
Series [5] has as its target T3, Peroxisome proliferator-activated receptor gamma. Kind of series: (§1) Displacement of fluorescein labeled ligand from PPARgamma receptor by fluorescence polarization assay.
For series [6], the system named is Mus musculus. The experiment in a line: Antidiabetic activity in db/db mouse assessed as changes in free fatty acid level at 10 mg/kg, po qd for 14 days. The class given is functional.
Series [7] relates to Mus musculus. The experiment in a line: Antidiabetic activity in db/db mouse assessed as changes in triglyceride level at 10 mg/kg, po qd for 14 days. Format: functional.
The subject of series [8] is Mus musculus. Kind of series: Antidiabetic activity in db/db mouse assessed as changes in glucose level at 10 mg/kg, po qd for 14 days. Format: functional.
Series [9] has as its system Mus musculus. The experiment in a line: Antidiabetic activity in db/db mouse assessed as changes in insulin level at 10 mg/kg, po qd for 14 days. The class given is functional.
A short description of series [10]: Permeability from apical to basolateral side of Caco-2 cell membrane at pH 5.5. Format: ADME, cell-based. Conditions: human, Caco-2, pH 5.5; read-out: permeability. On the technique in general: Passage across Caco-2 layers is used to estimate intestinal permeability.
The nature of series [11]: Permeability from apical to basolateral side of Caco-2 cell membrane at pH 7.4. Conditions: human, Caco-2, pH 7.4; read-out: permeability. The class given is ADME, cell-based.
Series [12] in a line: Metabolic stability in mouse liver microsomes after 10 mins. Conditions: read-out: Stability. The class given is ADME, Microsome. (Liver microsomes are a subcellular fraction often used to study metabolism.)
The target in series [13] is T4, Peroxisome proliferator-activated receptor gamma (Homo sapiens) (UniProt P37231).
T4 sequence (whole entry): T3 sequence (P37231 whole entry)
The description is as §1.

The nature of series [14]: Permeability from apical to basolateral side of Caco-2 cell membrane at pH 6.5. Format: ADME, cell-based. Conditions: human, Caco-2, pH 6.5; read-out: permeability.

Calls of active or inactive are those of the source. The rule behind the calls is not given here.

The term IC50 denotes the concentration needed to halve the response being measured. A lower IC50 goes with inhibition by little substance. As usually defined, the EC50 is the midpoint of the concentration-response curve.

As to `Cc1oc(-c2ccccc2)nc1CCOc1ccc(CN(CC(=O)O)Cc2cccc3ccccc23)cc1`, the half-inhibitory concentration (IC50) was 140 nM in series [1] and 767 nM in series [5]. Further, in series [2], the Intrinsic activity came out at 90%. For the same compound, the concentration for a half-maximal effect (EC50) was 840 nM in series [3] and 21 nM in series [4].
As to `COc1ccc(OC(=O)N(CC(=O)O)Cc2ccc(OCCc3nc(-c4ccccc4)oc3C)cc2)cc1` [MURAGLITAZAR], the Activity in the series with Mus musculus [6] is given as -69%; in the series on Mus musculus [7], -50%; with Mus musculus [8] it was -50%; in the series with Mus musculus [9] it was -67%.
For the compound `CCCCCCCN(CC(=O)O)Cc1ccc(OCCc2nc(-c3ccccc3)oc2C)cc1`, the IC50 in series [1] stood at 1050 nM; in series [5] it was 2300 nM. The Intrinsic activity in series [2] was determined as 63%. Also, the EC50 in [3] was determined as 136 nM; in [4], 180 nM.
On the same counts, the results for `Cc1oc(-c2ccccc2)nc1CCOc1ccc(CN(CC(=O)O)Cc2ccc(OCc3ccccc3)cc2)cc1` are 1050 nM, 284 nM, 106%, 221 nM and 189 nM.
Regarding `Cc1oc(-c2ccccc2)nc1CCOc1ccc(CN(CC(=O)O)Cc2ccccc2)cc1`, in series [2], the Intrinsic activity was 24%. The EC50 came to 3600 nM in [3] and 4020 nM in [4]. This compound also gave a half-inhibitory concentration (IC50) in series [5] of 1770 nM.
With `Cc1oc(-c2ccccc2)nc1CCOc1cccc(CN(CCCc2ccccc2)CC(=O)O)c1`, the IC50 is 51 nM in series [1] and 773 nM in series [5]. Besides, the Intrinsic activity in series [2] is 62%. Moreover, the results for the EC50 in [3] and in series [4] were 901 nM and 47 nM, respectively.
For `Cc1oc(-c2ccccc2)nc1CCOc1cccc(CN(CC(=O)O)Cc2ccccc2)c1`, the Papp A→B in [10] was 25.1 ×10⁻⁶ cm/s; in series [11], 22.5 ×10⁻⁶ cm/s. The Activity in the series on Mus musculus [6] is -22%; with Mus musculus [7], -29%; in the series with Mus musculus [8], -31%; with Mus musculus [9], -40%. Further, the half-maximal inhibitory concentration (IC50) in series [1] was 90 nM; in series [5] it was 240 nM. Also, in series [2], the Intrinsic activity is 72%. The EC50 came to 295 nM in series [3] and 22 nM in [4]. Besides, in [12], the remaining at 10 min stood at 84%.
As to `Cc1oc(-c2ccccc2)nc1CCOc1ccc(CN(CCOCc2ccccc2)CC(=O)O)cc1`, the half-maximal inhibitory concentration (IC50) was 1800 nM in series [1] and 4560 nM in series [5]. Further, in series [2], the Intrinsic activity turned out to be 56%. For the same compound, the EC50 in series [3] was 1180 nM; in [4], 726 nM.
In the case of `CCC(CC)CN(CC(=O)O)Cc1ccc(OCCc2nc(-c3ccccc3)oc2C)cc1`, in series [2], the Intrinsic activity is 8%. This compound showed an EC50 in series [3] of 1800 nM. Also, the outcome in series [13] was inactive.
On to `Cc1oc(-c2ccccc2)nc1CCOc1cccc(CN(CC(=O)O)Cc2cccc(Oc3ccccc3)c2)c1`, for which the concentration for half-maximal inhibition (IC50) in series [1] was 83 nM; in series [5], 110 nM. Moreover, the Intrinsic activity in [2] turned out to be 95%. In addition, the concentration giving a half-maximal response (EC50) is 359 nM in series [3] and 62 nM in [4].
As for `Cc1oc(-c2ccccc2)nc1CCOc1cccc(CN(CC(=O)O)Cc2cc3ccccc3[nH]2)c1`, the figures for the half-inhibitory concentration (IC50) in [1] and in [5] were 246 nM and 540 nM, respectively. For the same compound, in [2], the Intrinsic activity is 62%. Besides, the EC50 in series [3] was 759 nM; in series [4], 197 nM.
Take `Cc1oc(-c2ccccc2)nc1CCOc1ccc(CN(CC(=O)O)Cc2ccccn2)cc1`: in [2], the Intrinsic activity amounted to 12%. The EC50 in series [3] came to 230 nM; in [4], 692 nM. This compound yielded a half-maximal inhibitory concentration (IC50) in series [5] of 2900 nM.
For `Cc1oc(-c2ccccc2)nc1CCOc1ccc(CN(CC(=O)O)Cc2ccc3c(c2)OCO3)cc1`, the IC50 in series [1] was found to be 1800 nM; in series [5] it was 3290 nM. The Intrinsic activity in series [2] was 77%. In addition, the EC50 in [3] was 307 nM; in [4], 128 nM.
On the same counts, the results for `Cc1oc(-c2ccccc2)nc1CCOc1ccc(CN(CC(=O)O)Cc2ccc3ccccc3c2)cc1` are 680 nM, 1210 nM, 39%, 1210 nM and 618 nM.
On the same counts, the results for `Cc1oc(-c2ccccc2)nc1CCOc1cccc(CN(CC(=O)O)Cc2ccc(OCc3ccccc3)cc2)c1` are 387 nM, 183 nM, 56%, 412 nM and 324 nM.
On the same counts, the results for `Cc1oc(-c2ccccc2)nc1CCOc1ccc(CN(CC(=O)O)Cc2ccc(-c3ccccc3Cl)o2)cc1` are 1800 nM, 280 nM, 55%, 267 nM and 871 nM.
For `Cc1oc(-c2ccccc2)nc1CCOc1cccc(CN(CC(=O)O)Cc2ccc3ccccc3c2)c1`, the IC50 in [1] was 149 nM; in [5] it was 145 nM. Moreover, the Intrinsic activity in series [2] was determined as 65%. Further, the EC50 in [3] amounted to 1390 nM; in [4] it was 313 nM.
For `Cc1oc(-c2ccccc2)nc1CCOc1cccc(CN(CC(=O)O)Cc2ccc(Oc3ccccc3)cc2)c1`, the half-inhibitory concentration (IC50) in series [1] was 110 nM; in [5], 230 nM. Further, the Intrinsic activity in series [2] is 67%. Also, the EC50 in series [3] was 67 nM; in series [4] it was 30 nM.
For `Cc1oc(-c2ccccc2)nc1CCOc1cccc(CN(CC(=O)O)Cc2cccc3ccccc23)c1`, the half-maximal inhibitory concentration (IC50) stood at 34 nM in [1] and 67 nM in [5]. For the same compound, the Intrinsic activity in series [2] was 85%. Further, the concentration giving a half-maximal response (EC50) is 36 nM in series [3] and 5 nM in [4].
On the same counts, the results for `Cc1oc(-c2ccccc2)nc1CCOc1ccc(CN(CC(=O)O)Cc2cccc(Oc3ccccc3)c2)cc1` are 88 nM, 480 nM, 107%, 391 nM and 4 nM.
Consider `Cc1oc(-c2ccccc2)nc1CCOc1ccc(C[C@H](Nc2ccccc2C(=O)c2ccccc2)C(=O)O)cc1`, for which, in [2], the Intrinsic activity was 59%.
Regarding `CCCCCCCN(CCc1ccc(O[C@@](C)(CC)C(=O)O)cc1)C(=O)Nc1ccc(F)cc1F`, the results for the concentration for half-maximal inhibition (IC50) in series [1] and in series [5] were 348 nM and 670 nM, respectively. Besides, the Intrinsic activity in series [2] was 79%. In addition, the EC50 in series [3] stood at 249 nM; in series [4], 71 nM.
The like results for `Cc1oc(-c2ccccc2)nc1CCOc1cccc(CN(CCc2ccccc2)CC(=O)O)c1` were, in that order, 75 nM, 134 nM, 82%, 108 nM and 44 nM.
For the compound `Cc1oc(-c2ccccc2)nc1CCOc1ccc(CN(CC(=O)O)Cc2ccc(Oc3ccccc3)cc2)cc1`, the values for the half-inhibitory concentration (IC50) in [1] and in series [5] were 970 nM and 227 nM, respectively. Further, the Intrinsic activity in [2] was determined as 59%. For the same compound, the figures for the EC50 in series [3] and in series [4] were 52 nM and 35 nM, respectively. In series [12], the remaining at 10 min was 46%. In addition, in [14], the Papp A→B was less than 1.5 ×10⁻⁶ cm/s.

For the origin of these results see ChEMBL document CHEMBL1139149, “Discovery of tertiary aminoacids as dual PPARalpha/gamma agonists-I” (Bioorg Med Chem Lett, 2007).
